Test results reported in US9844577B1, “Medicinal composition for prevention or treatment retinal ischemia” (priority 2017, dated 2017).

Key:
Assay in all cases: Retinal protein level by western blot after retinal ischemia
Format in all cases: in vivo, Wistar rats
HIF-1α protein = settings: intravitreal 5 μl 15 min before ischemia: 4 μM Shikonin, 10 μM JIB-04, 100 mg/4 ml Avastin; Vehicle 3.69±0.22
Protocol: (§1) After anesthesia, rats (200-250 g) were placed in a stereotaxic frame. A high intraocular pressure (HIOP) of 120 mmHg for 60 min was induced by cannulating the anterior chamber of one eye of an ischemic rat with a 30-gauge needle connected to an elevated 0.9% saline reservoir. The ischemic insult was confirmed by the detection of a pale eye fundus. In contrast, one eye of a control rat received a sham procedure where the saline reservoir was not elevated.
(§2) An intake of 1.35 or 2.7 g/kg/day XFZYD (Sun Ten Pharmaceutical CO, Taichung, Taiwan) was given for 7 consecutive days before or after HIOP induced retinal ischemia until the rats were sacrificed. The test rat whose eye was subjected to ischemia was fed with the constant volume (4 ml) of XFZYD or the equal volume of vehicle.
(§3) After anesthesia as described, pupil dilation with 1% tropicamide (Alcon, ZG, Switzerland) and 2.5% phenylephrine (Akorn, Inc., IL, USA) as well as surface anesthesia with 0.5% proparacaine (Alcon, ZG, Switzerland), a 30-gauge needle attached to a 25 μl syringe was used to perform intravitreal injections. In certain instances, intravitreal injections 5 μl of 4 μM Shikolin (Sigma-Aldrich, MO, USA), 10 μM JIB-04 (Sigma-Aldrich, MO, USA), 5 μl of 100 mg/4 ml Avastin (Hoffmann-La Roche, Basel, Switzerland) or of vehicle (an equal volume of dimethyl sulfoxide; J. T. Baker, NJ, USA) were performed on ischemic eyes fifteen minutes before pressure induced retinal ischemia.
(§4) Twenty-four hours after retinal ischemia and pre-/post-ischemia administration of the defined chemicals or after a sham procedure, the rats were sacrificed. The retinas were removed and sonicated in lysis buffer, namely mammalian protein extraction reagent (HyCell, Taipei, Taiwan). […] Journal of Ocular Pharmacology and Therapeutics. 2010; 26(5):421-429; Hsiao-Ming Chao, Min-Jay Chuang, Jorn-Hon Liu, Xiao-Qian Liu, Li-Kang Ho, Wynn H. T. Pan, Xiu-Mei Zhang, Chi-Ming Liu, Shen-Kou Tsai, Chi-Woon Kong, Shou-Dong Lee, Mi-Mi Chen, and Fang-Ping Chao. Baicalein protects against retinal ischemia by antioxidation, antiapoptosis, downregulation of HIF-1α, VEGF, and MMP-9 and upregulation of HO-1. Journal of Ocular Pharmacology and Therapeutics. 29(6): 539-549, 2013). The separated proteins were transferred to a polyvinylidene difluoride (PVDF) membrane (Millipore, MA, USA). The membranes were then blocked for 1 hour at room temperature with 5% fat-free skimmed milk (Fonterra, Taoyuan, Taiwan) in phosphate-buffered saline (PBS). Next, the blots were incubated individually overnight at 4° C. with one of the following primary antibodies, namely, mouse monoclonal anti-β-actin antibody (1:80000, Novusbio, MA, USA), mouse monoclonal anti-VEGF antibody (1:200, Novusbio, MA, USA), mouse monoclonal anti-HIF-1α antibody (1:1000, Abcom, Cambridge, UK), rabbit polyclonal anti-PKM2 antibody (1:600, Abcom, Cambridge, UK) and rabbit monoclonal anti-RBP2 antibody (1:500, Abcom, Cambridge, UK). The blots were then incubated in the secondary antibody, either horseradish peroxidase (HRP)-conjugated goat anti-rabbit or antimouse IgG (1:2000 or 1:10000, Santa Cruz Biotechnology, TX, USA) as appropriate at 37° C. for 1 h. The primary/secondary antibodies were diluted in 5% fat-free skimmed milk. Finally, the membranes were developed using the enhanced chemiluminescent analysis system (HyCell, Taipei, Taiwan), and exposed to an X-ray film (Fujifilm, Tokyo, Japan). Scanning densitometry was used to analyze the amount of each protein present.

PKM2 protein = settings: intravitreal 5 μl 15 min before ischemia: 4 μM Shikonin, 10 μM JIB-04, 100 mg/4 ml Avastin; Vehicle 4.04±0.50
Protocol: as §1, §2, §3, §4

RBP2 protein = settings: intravitreal 5 μl 15 min before ischemia: 4 μM Shikonin, 10 μM JIB-04, 100 mg/4 ml Avastin; Vehicle 7.77±2.27
Protocol: as §1, §2, §3, §4

VEGF protein = settings: intravitreal 5 μl 15 min before ischemia: 4 μM Shikonin, 10 μM JIB-04, 100 mg/4 ml Avastin; Vehicle 6.92±1.55
Protocol: as §1, §2, §3, §4

Row | Compound | ratio of protein expression level of HIF-1α relative to β-actin (HIF-1α protein) | ratio of protein expression level of PKM2 relative to β-actin (PKM2 protein) | ratio of protein expression level of RBP2 relative to β-actin (RBP2 protein) | ratio of protein expression level of VEGF relative to β-actin (VEGF protein)
1 | Clc1ccc(N/N=C(\c2ccccc2)c2ccccn2)nc1 [JIB-04] | 2.14±1.11 | 1.67±1.31 | 1.16±0.14 | 1.68±0.46
2 | CC(C)=CC[C@@H](O)C1=CC(=O)c2c(O)ccc(O)c2C1=O [Shikonin] | 1.95±0.76 | 0.61±0.19 | 1.00±0.71 | 1.84±0.60
3 | Avastin: VEGF antibody (Hoffmann-La Roche) | 3.65±0.84 | 3.42±0.88 | 6.00±3.61 | 1.08±0.23
